Results on three compounds are retold here after BindingDB's records for doi:10.1016/S0960-894X(01)80714-9 (1993).

Experiment [1] can be described thus: The compound was evaluated in vitro for the inhibition of pancreatitic porcine elastase(PPE).
A short description of experiment [2]: The compound was evaluated in vitro for the inhibition of rat leukocyte elastase(RLE).

`CO[C@@H]1C(=O)N(C(C)=O)[C@@H]1c1ccccc1` [(3S,4R)-1-Acetyl-3-methoxy-4-phenyl-azetidin-2-one]: the IC50 in experiment [1] was 0.7 µM; in experiment [2] it was 0.4 µM.

As to `CCCC[C@@H]1C(=O)N(C(C)=O)[C@@H]1C(C)=O` [(3S,4S)-1,4-Diacetyl-3-butyl-azetidin-2-one], the 50% inhibitory concentration (IC50) was over 160 µM in experiment [1] and 37 µM in experiment [2].

For the compound `CO[C@@H]1C(=O)N(C(C)=O)[C@@H]1C(C)=O` [(3S,4S)-1,4-Diacetyl-3-methoxy-azetidin-2-one], the IC50 amounted to 26 µM in experiment [1] and 11 µM in experiment [2].

For orientation: IC50 means the point on the concentration scale where inhibition reaches its midpoint. A lower IC50 goes with greater potency.
